Experimental findings from patent US20020133837A1, “Transgenic animals at a nuclear hormone receptor locus” (priority 2001, published 2002) are described below.

For this assay, the system named is inbred transgenic mice with mutant thyroid hormone receptor beta (TRβPV) and wild-type mice. As to the kind of experiment: Behavioral analysis of locomotor activity (light beam breaks) after methylphenidate. Type of assay: in vivo, mouse. To be noted: methylphenidate 7.5 mg/kg or 30.0 mg/kg on day 3, activity assessed for 3 hours following injection. The protocol: Animals were kept on a light-dark schedule of 12 hours with lights on at 6:00 a.m. Behavioral tests were started between 4:30 p.m. and 5:30 p.m. Eleven-to sixteen-week-old mice were assessed in a 15×30 cm cage with four light beams crossing the cage on the long axis. Locomotor activity was measured by computer-automated counting of the number of times a light beam was blocked (San Diego Instruments, San Diego, Calif.). Activity was measured for 3 hours upon introduction of each animal to the chamber on day 1 to measure baseline/novel behavior levels (see FIG. 3), and the animals remained in the chambers for the length of the experiment (3 days) to permit drug response in an acclimated environment. On day 2, animals were injected with saline (i.p),and on day 3 with methylphenidate (7.5 mg/kg or 30.0 mg/kg). Food and water were provided ad libitum, and activity was assessed for 3 hours following injection. Activity scores were subjected to analysis of variance (ANOVA) analysis to compare the groups by genotype and injection status.

Entries after “also recorded” stand apart in the source; their conditions may differ.

As for `COC(=O)C(c1ccccc1)C1CCCCN1` (centres unmarked) [methylphenidate], the “level of locomotor activity in response to methylphenidate” value is on record as “decreased levels of activity; also recorded: responded to treatment; also recorded: reduced their level of activity; also recorded: level of activity in these mice was reduced” (heterozygous and homozygous TRβ PV mutant inbred mice); “increase in activity” (wild-type mice).
